In ChEMBL document CHEMBL1671795, “Evaluation of endogenous fatty acid amides and their synthetic analogues as potential anti-inflammatory leads” (Bioorg Med Chem, 2011):
pIC50: −log10 of the molar value.

Legend:
RAW264.7 [1] = test: Antiinflammatory activity against LPS-stimulated mouse RAW264.7 cells assessed as inhibition of IL-6 production at 1 to 15 uM after 18 hrs by ELISA; type: functional, cell-based
HaCaT [2] = test: Antiinflammatory activity against IFN-gamma-stimulated human HaCaT cells assessed as inhibition of chemokine MDC production at 50 to 100 uM after 18 hrs by ELISA; type: functional, cell-based
HaCaT [3] = test: Cytotoxicity against human HaCaT cells at 50 to 100 uM after 24 hrs by MTT assay; type: cell-based
RAW264.7 [4] = test: Antiinflammatory activity against LPS-stimulated mouse RAW264.7 cells assessed as inhibition of TNFalpha production at 1 to 15 uM after 18 hrs by ELISA; type: functional, cell-based
RAW264.7 [5] = test: Antiinflammatory activity against LPS-stimulated mouse RAW264.7 cells assessed as inhibition of IL1-beta production at 1 to 15 uM after 18 hrs by ELISA; type: functional, cell-based
RAW264.7 [6] = test: Antiinflammatory activity against LPS-stimulated mouse RAW264.7 cells assessed as inhibition of NO production at 3.125 to 25 uM after 24 hrs by Griess method; type: functional, cell-based
RAW264.7 [7] = test: Cytotoxicity against mouse RAW264.7 cells at 50 uM after 24 hrs by MTT assay; type: cell-based; settings: raw264.7, 24 h
[8] = Cytotoxicity against mouse RAW264.7 cells after 24 hrs by MTT assay; type: cell-based; settings: read-out: TC50
RAW264.7 [9] = test: Cytotoxicity against mouse RAW264.7 cells at 100 uM after 24 hrs by MTT assay; type: cell-based; settings: raw264.7, 24 h

Row | pIC50 (RAW264.7 [6]; Mus musculus, RAW264.7, 24 h) | Structure (SMILES) | Activity (RAW264.7 [1]) | Activity (HaCaT [2]) | Activity (HaCaT [3]) | Activity (RAW264.7 [4]) | Activity (RAW264.7 [5]) | Activity (RAW264.7 [6]) | Activity (RAW264.7 [7]) | CC50 at 24 h [8] [µM] | Activity (RAW264.7 [9]) | Activity (RAW264.7 [6]; record 2) [µM]
1 | – | CCCCCCCC/C=C\CCCCCCCCCCCC(=O)NCc1ccc(O)c(OC)c1 | Dose-dependent effect | Non-toxic | Toxic | Dose-dependent effect | Dose-dependent effect | – | – | – | – | –
2 | – | CC/C=C\C/C=C\C/C=C\CCCCCCCC(=O)NCCc1ccc(O)c(O)c1 [LINOLEOYL DOPAMINE] | Dose-dependent effect | Non-toxic | – | Dose-dependent effect | Dose-dependent effect | Dose-dependent effect | – | – | – | –
3 | – | CC/C=C\C/C=C\C/C=C\CCCCCCCC(=O)NCc1ccc(O)c(OC)c1 | Dose-dependent effect | Non-toxic | Toxic | Dose-dependent effect | Dose-dependent effect | – | – | – | – | –
4 | – | CCCCCCCC/C=C\CCCCCCCC(=O)NCCc1ccc(O)c(O)c1 [OLEOYL DOPAMINE] | Dose-dependent effect | Non-toxic | Toxic | Dose-dependent effect | Dose-dependent effect | Dose-dependent effect | Toxic | 13 | Toxic | 2
5 | – | CCCCCCCCCCCCCCCC(=O)NCCc1ccc(O)c(O)c1 [PALMITOYL DOPAMINE] | Dose-dependent effect | Non-toxic | Toxic | Dose-dependent effect | Dose-dependent effect | Dose-dependent effect | Toxic | 13 | Toxic | 2
6 | – | CCCCCCCC/C=C\CCCCCCCC(=O)NCc1ccc(O)c(OC)c1 [OLVANIL] | Dose-dependent effect | Non-toxic | Toxic | Dose-dependent effect | Dose-dependent effect | – | – | – | – | –
7 | 5.70 | CCCCCCCCC(=O)/C=C/CCCCCCC(=O)NCCc1ccc(O)c(O)c1 | Dose-dependent effect | Non-toxic | Toxic | Dose-dependent effect | Dose-dependent effect | Dose-dependent effect | Toxic | 13 | Toxic | –
8 | – | CCCCCCCC/C=C\CCCCCCCCCCCC(=O)NCCc1ccc(O)c(O)c1 | Dose-dependent effect | Non-toxic | Toxic | Dose-dependent effect | Dose-dependent effect | Dose-dependent effect | Toxic | 13 | Toxic | 2
9 | – | CCCCC/C=C\C/C=C\CCCCCCCC(=O)NCc1ccc(O)c(OC)c1 | Dose-dependent effect | Non-toxic | Toxic | Dose-dependent effect | Dose-dependent effect | – | – | – | – | –
10 | – | CCCCC/C=C\C/C=C\CCCCCCCC(=O)NCCc1ccc(O)c(O)c1 | Dose-dependent effect | Non-toxic | Toxic | Dose-dependent effect | Dose-dependent effect | Dose-dependent effect | Toxic | 13 | Toxic | 2
11 | – | CCCCCCCCCCCCCCCC(=O)NCc1ccc(O)c(OC)c1 | Dose-dependent effect | Non-toxic | Toxic | Dose-dependent effect | Dose-dependent effect | – | – | – | – | –
